# According to article PMC7369637, “Inhibition of Resistance-Refractory P. falciparum Kinase PKG Delivers Prophylactic, Blood Stage, and Transmission-Blocking Antiplasmodial Activity” (Cell Chemical Biology, 2020):
# Test system: metabolite levels in Pf trophozoites and schizonts
# Experiment: Metabolomics (UHPLC-MS) of treated trophozoites and schizonts
# Format: cell-based, Plasmodium falciparum
# Details: schizonts
# Description: Metabolomics experiments were performed as described elsewhere ([Murithi et al., 2019]). […] Following several washes, metabolites were extracted by 90% methanol containing 0.5 μM ^13C^15N-labelled aspartate as an internal standard. Nitrogen-dried samples were stored at -80°C. Samples were resuspended in high-performance liquid chromatography (HPLC) grade water that contained 1 μM chlorpropamide as an internal standard. They were then analyzed by ultra-high-performance liquid chromatography mass spectrometry UHPLC-MS ([Allman et al., 2016]). Data analysis was performed using the el-MAVEN software and the Metaboanalyst package in R Studio ([Murithi et al., 2019]).
compound,measurement,value
"O=C1C(O)=C([C@H]2CC[C@H](c3ccc(Cl)cc3)CC2)C(=O)c2ccccc21 [ATQ, Atovaquone]",Log2 fold change in 2-Hydroxy-2-methylbutanedioic acid level,-0.013
same,Log2 fold change in 2_3-Diphosphoglyceric acid level,-0.049
same,Log2 fold change in 3-phosphoglycerate level,-0.461
same,Log2 fold change in 4-aminobutyrate level,0.163
same,Log2 fold change in 4-phosphopantothenate level,-0.471
same,Log2 fold change in 6-phospho-D-gluconate level,-0.038
same,Log2 fold change in ADP-D-glucose level,0.078
same,Log2 fold change in CDP level,-0.939
same,Log2 fold change in CMP level,-0.776
same,Log2 fold change in D-glucosamine-1/6-phosphate level,-0.254
same,Log2 fold change in D-sedoheptulose-1/7-phosphate level,-0.253
same,Log2 fold change in DL-Pipecolic Acid level,0.155
same,Log2 fold change in DLH level,0.054
same,Log2 fold change in DLS level,0.295
same,Log2 fold change in FAD level,0.00635
same,Log2 fold change in FMN level,-0.114
same,Log2 fold change in GDP level,-0.131
same,Log2 fold change in GMP level,0.068
same,Log2 fold change in HVDD level,0.015
same,Log2 fold change in Hexose level,0.028
same,Log2 fold change in IMP level,0.230
same,Log2 fold change in N-Acetyl-L-alanine level,-0.209
same,Log2 fold change in N-acetyl-L-ornithine level,0.067
same,Log2 fold change in N-acetyl-glutamate level,0.069
same,Log2 fold change in N-acetyl-glutamine level,-0.075
same,Log2 fold change in N-carbamoyl-L-aspartate level,2.103
same,Log2 fold change in NAD+ level,-0.089
same,Log2 fold change in NADP+ level,-0.036
same,Log2 fold change in NADPH level,0.265
same,Log2 fold change in Octulose 8/1P level,-0.088
same,Log2 fold change in Octulose Bisphosphate level,-0.059
same,Log2 fold change in PD level,0.272
same,Log2 fold change in PE level,0.257
same,Log2 fold change in PEE level,0.222
same,Log2 fold change in PEEK level,0.220
same,Log2 fold change in PVNF level,-0.058
same,Log2 fold change in Pyroglutamic acid level,-0.420
same,Log2 fold change in Ribose-5-phosphate level,-0.347
same,Log2 fold change in S-adenosyl-L-homocysteine level,-0.090
same,Log2 fold change in Sedoheptulose bisphosphate level,-0.159
same,Log2 fold change in UDP level,-1.390
same,Log2 fold change in UDP-D-glucose level,-0.006
same,Log2 fold change in UDP-D-glucuronate level,-0.062
same,Log2 fold change in UDP-N-acetyl-glucosamine level,-0.391
same,Log2 fold change in UMP level,-1.267
same,Log2 fold change in a-ketoglutarate level,-0.084
same,Log2 fold change in acetyl-CoA level,-0.850
same,Log2 fold change in acetyl-aspartate level,-0.355
same,Log2 fold change in alanine/sarcosine level,-0.266
same,Log2 fold change in arginine level,-0.203
same,Log2 fold change in asparagine level,-0.008
same,Log2 fold change in aspartate level,-0.839
same,Log2 fold change in coenzyme A level,-0.075
same,Log2 fold change in cyclic-AMP level,-0.213
same,Log2 fold change in cytidine level,-0.213
same,Log2 fold change in dCDP level,-0.147
same,Log2 fold change in dCMP level,-0.462
same,Log2 fold change in dCTP level,-0.058
same,Log2 fold change in dGDP/ADP level,-0.147
same,Log2 fold change in dGMP/AMP level,-0.148
same,Log2 fold change in dTDP level,-1.164
same,Log2 fold change in dTMP level,-1.035
same,Log2 fold change in dTTP level,-0.979
same,Log2 fold change in dihydroorotate level,3.181
same,Log2 fold change in folate level,-0.209
same,Log2 fold change in fructose-1-6-bisphosphate level,-0.277
same,Log2 fold change in fructose-6-phosphate level,-0.212
same,Log2 fold change in fumarate level,-0.532
same,Log2 fold change in glutamate level,0.117
same,Log2 fold change in glutamine level,-0.138
same,Log2 fold change in glutathione disulfide level,-0.224
same,Log2 fold change in glutathione level,-0.005
same,Log2 fold change in guanosine level,0.426
same,Log2 fold change in histidine level,-0.171
same,Log2 fold change in hydroxyproline/Aminolevulinate level,-0.254
same,Log2 fold change in hypoxanthine level,-0.139
same,Log2 fold change in inosine level,-0.136
same,Log2 fold change in isoleucine level,-0.252
same,Log2 fold change in lysine level,0.587
same,Log2 fold change in malate level,-0.393
same,Log2 fold change in maleic acid level,-0.266
same,Log2 fold change in methionine level,-0.241
same,Log2 fold change in nicotinate level,-0.183
same,Log2 fold change in orotate level,-1.303
same,Log2 fold change in pantothenate level,-0.167
same,Log2 fold change in phenylalanine level,-0.316
same,Log2 fold change in phosphoenolpyruvate level,-0.095
same,Log2 fold change in proline level,-0.320
same,Log2 fold change in pyruvate level,-1.011
same,Log2 fold change in ribose level,-0.223
same,Log2 fold change in ribose-phosphate level,-0.313
same,Log2 fold change in ribulose-5-phosphate level,-0.261
same,Log2 fold change in serine level,0.028
same,Log2 fold change in sn-glycerol-3-phosphate level,-0.021
same,Log2 fold change in succinate/Methylmalonic acid level,-0.382
same,Log2 fold change in thiamine level,-0.051
same,Log2 fold change in threonine/homoserine level,-0.072
same,Log2 fold change in tryptophan level,-0.203
same,Log2 fold change in tyrosine level,-0.165
same,Log2 fold change in xanthosine level,-0.209
same,Log2 fold change in xanthosine-5-phosphate level,-0.537
